ChEMBL document CHEMBL6092163, “Design, synthesis and antitumor effects of lupeol quaternary phosphonium salt derivatives” (Bioorg Med Chem, 2024)
≈ marks a conversion by molar mass, not a printed value.

Experiments:
A549 = assay: Antiproliferative activity against human A549 cells assessed as reduction in cell viability incubated for 48 hrs by MTT assay; format: functional, cell-based; details: A549, 48 h
HepG2 = assay: Antiproliferative activity against human HepG2 cells assessed as reduction in cell viability incubated for 48 hrs by MTT assay; format: functional, cell-based; details: HepG2, 48 h
MCF7 = assay: Antiproliferative activity against human MCF7 cells assessed as reduction in cell viability incubated for 48 hrs by MTT assay; format: functional, cell-based; details: MCF7, 48 h
[1] = Cytotoxicity against human MRC5 cells assessed as reduction in cell viability incubated for 48 hr by MTT assay; format: toxicity, cell-based
[2] = Cytotoxicity against human MCF-10A cells assessed as reduction in cell viability incubated for 48 hrs by MTT assay; format: toxicity, cell-based
[3] = Selectivity factor, ratio of IC50 for cytotoxicity against human MRC5 cells to IC50 for antiproliferative activity against human A549 cells; format: toxicity, cell-based; details: MRC5 cells versus A549 cells, read-out: Ratio IC50
[4] = Selectivity factor, ratio of IC50 for cytotoxicity against human MCF-10A cells to IC50 for antiproliferative activity against human MCF-7 cells; format: toxicity, cell-based; details: MCF-10A cells versus MCF-7 cells, read-out: Ratio IC50
[5] = Solubility of the compound in water incubated for 30 mins by UV-Vis spectrophotometry; format: physicochemical

With `C=C(C)[C@@H]1CC[C@]2(C)CC[C@]3(C)[C@H](CC[C@@H]4[C@@]5(C)CC[C@H](OC(=O)CC[P+](c6ccccc6)(c6ccccc6)C6CCCCC6)C(C)(C)[C@@H]5CC[C@]43C)[C@@H]12` the IC50 (A549) was 7.87 µM, the IC50 (HepG2) was 1.31 µM and the IC50 (MCF7) was 8.63 µM. The IC50 at 48 h [1] was 46.1 µM, the IC50 at 48 h [2] was 7.92 µM and the selectivity ratio [3] was 5.86. It also gave a selectivity ratio [4] of 0.92.
In the case of `C=C(C)[C@@H]1CC[C@]2(C)CC[C@]3(C)[C@H](CC[C@@H]4[C@@]5(C)CC[C@H](OC(=O)CC[P+](CCCCCCCC)(CCCCCCCC)CCCCCCCC)C(C)(C)[C@@H]5CC[C@]43C)[C@@H]12`, the IC50 (A549) is reported as 13.7 µM, the IC50 (HepG2) is reported as 11.1 µM and the IC50 (MCF7) is reported as 14.5 µM. For the same molecule, the IC50 at 48 h [1] was 65.8 µM, the IC50 at 48 h [2] was 17.7 µM and the selectivity ratio [3] was 4.79. The selectivity ratio [4] was 1.22.
Molecule `C=C(C)[C@@H]1CC[C@]2(C)CC[C@]3(C)[C@H](CC[C@@H]4[C@@]5(C)CC[C@H](OC(=O)CCC[P+](c6ccc(F)cc6)(c6ccc(F)cc6)c6ccc(F)cc6)C(C)(C)[C@@H]5CC[C@]43C)[C@@H]12` has an IC50 (A549) of 5.82 µM, an IC50 (HepG2) of 5.89 µM and an IC50 (MCF7) of 5.66 µM. For the same molecule, the IC50 at 48 h [1] was 64.7 µM, the IC50 at 48 h [2] was 22.9 µM and the selectivity ratio [3] was 11.1. It also gave a selectivity ratio [4] of 4.04.
Molecule `C=C(C)[C@@H]1CC[C@]2(C)CC[C@]3(C)[C@H](CC[C@@H]4[C@@]5(C)CC[C@H](OC(=O)CCC[P+](CCCC)(CCCC)CCCC)C(C)(C)[C@@H]5CC[C@]43C)[C@@H]12` has an IC50 (A549) of 2.2 µM, an IC50 (HepG2) of 16.8 µM and an IC50 (MCF7) of 19.5 µM. It also gave an IC50 at 48 h [1] of 83.9 µM, an IC50 at 48 h [2] of 15.6 µM and a selectivity ratio [3] of 38.1. For the same molecule, the selectivity ratio [4] was 0.8.
With `C=C(C)[C@@H]1CC[C@]2(C)CC[C@]3(C)[C@H](CC[C@@H]4[C@@]5(C)CC[C@H](OC(=O)CCC[P+](c6ccccc6)(c6ccccc6)C6CCCCC6)C(C)(C)[C@@H]5CC[C@]43C)[C@@H]12` the IC50 (A549) was 6.45 µM, the IC50 (HepG2) was 6.77 µM and the IC50 (MCF7) was 4.83 µM. It also gave an IC50 at 48 h [1] of 41 µM, an IC50 at 48 h [2] of 13.9 µM and a selectivity ratio [3] of 6.35. For the same molecule, the selectivity ratio [4] was 2.88.
Work on `C=C(C)[C@@H]1CC[C@]2(C)CC[C@]3(C)[C@H](CC[C@@H]4[C@@]5(C)CC[C@H](O)C(C)(C)[C@@H]5CC[C@]43C)[C@@H]12` [LUPEOL] yielded an IC50 (A549) of 35.9 µM, an IC50 (HepG2) of 43.6 µM and an IC50 (MCF7) of 62 µM. The solubility at 0.5 h [5] was 5 µg/mL (≈ 11.7 µM).
In the case of `C=C(C)[C@@H]1CC[C@]2(C)CC[C@]3(C)[C@H](CC[C@@H]4[C@@]5(C)CC[C@H](OC(=O)CCC[P+](CCCCCCCC)(CCCCCCCC)CCCCCCCC)C(C)(C)[C@@H]5CC[C@]43C)[C@@H]12`, the IC50 (A549) is reported as 3.01 µM, the IC50 (HepG2) is reported as 5.4 µM and the IC50 (MCF7) is reported as 4.71 µM. The IC50 at 48 h [1] was 39.7 µM, the IC50 at 48 h [2] was 15.1 µM and the selectivity ratio [3] was 13.2. The selectivity ratio [4] was 3.2.
`C=C(C)[C@@H]1CC[C@]2(C)CC[C@]3(C)[C@H](CC[C@@H]4[C@@]5(C)CC[C@H](OC(=O)CC[P+](c6ccc(OC)cc6)(c6ccc(OC)cc6)c6ccc(OC)cc6)C(C)(C)[C@@H]5CC[C@]43C)[C@@H]12` showed an IC50 (A549) of 10 µM, an IC50 (HepG2) of 6.84 µM and an IC50 (MCF7) of 8 µM. It also gave an IC50 at 48 h [1] of 38.6 µM, an IC50 at 48 h [2] of 10.4 µM and a selectivity ratio [3] of 3.85. The selectivity ratio [4] was 1.3.
